{"source": "patent US7335665B2", "about": "“Spirocyclic piperidines as MCH1 antagonists and uses thereof” (H - Lundbeck A/S, priority 2003, dated 2008)", "key": {"[1]": {"biological_target": "T1, rat MCH1 receptor (Rattus norvegicus, UniProt P97639)", "T1 construct": "expressed in transfected cells; host or cells: Human embryonic kidney Peak rapid 293 cells (Peakr293), transient, calcium phosphate; membranes", "T1 sequence (P97639 whole entry)": "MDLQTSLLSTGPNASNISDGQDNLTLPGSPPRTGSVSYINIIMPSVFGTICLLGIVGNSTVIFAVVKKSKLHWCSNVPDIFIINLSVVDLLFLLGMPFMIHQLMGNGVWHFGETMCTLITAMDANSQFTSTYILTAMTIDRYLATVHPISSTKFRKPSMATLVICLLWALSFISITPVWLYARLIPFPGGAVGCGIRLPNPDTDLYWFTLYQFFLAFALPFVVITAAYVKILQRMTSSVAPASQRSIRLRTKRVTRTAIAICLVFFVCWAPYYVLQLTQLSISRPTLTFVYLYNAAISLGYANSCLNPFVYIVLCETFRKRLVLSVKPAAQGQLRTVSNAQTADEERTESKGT", "test": "Radioligand binding assay at cloned rat MCH1 receptor ([3H]Compound A displacement)", "conditions": "cloned rat MCH1, membranes of transfected Peakr293 cells, 0.08 nM [3H]Compound A, 25° C., 90 minutes; read-out: KI", "method_in_brief": "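Membranes from Peakr293 cells transiently transfected with rat MCH1 receptor were incubated with 0.08 nM [3H]Compound A in 50 mM Tris pH 7.4, 10 mM MgCl2, PMSF, 1,10-phenanthroline and 0.2% BSA, 90 min at 25° C. Bound ligand was collected by filtration; nonspecific binding was defined with […] Compound A.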"}, "[2]": {"system": "MCH-1 receptor", "conditions": "rat and human MCH-1; cited from earlier work"}, "[3]": {"biological_target": "T2, MCH-1 receptor (Rattus norvegicus, UniProt P97639)", "T2 construct": "host or cells: in vivo, endogenous receptor of the animal", "T2 sequence (P97639 whole entry)": "as above", "conditions": "in vivo; cited from earlier work"}, "[4]": {"system": "G4F-7 cells", "conditions": "cited from earlier work"}}, "data": [{"compound": "CC(C)c1ccc2c(c1)COC21CCN(CCCNC(=O)C(c2ccccc2)c2ccccc2)CC1", "note": "[Example 102, N-{3-[5-(METHYLETHYL)SPIRO[1,3-DIHYDROISOBENZOFURAN-1,4′-PIPERIDINE]-10-YL]PROPYL}-2,2-DIPHENYLACETAMIDE]", "values": [{"measurement": "Ki", "setting": "[1]", "result": 162, "unit": "nM"}]}, {"compound": "Cc1ccc2c(c1)COC21CCN(CCCNC(=O)C(c2ccccc2)c2ccccc2)CC1", "note": "[Example 103, N-[3-(5-METHYLSPIRO[1,3-DIHYDROISOBENZOFURAN-1,4′-PIPERIDINE]-10-YL)PROPYL]-2,2-DIPHENYLACETAMIDE]", "values": [{"measurement": "Ki", "setting": "[1]", "result": 14.7, "unit": "nM"}]}, {"compound": "CN(C)CC1CCc2cc(NC(=O)c3ccc(-c4ccc(F)cc4)cc3)ccc2C1", "note": "(stereo not drawn) [Example T-226296]", "values": [{"measurement": "affinity for the MCH-1 receptor", "setting": "[2]", "result": "5 to 9", "unit": "nM"}, {"measurement": "food intake induced by the intracerebroventricular application of MCH", "setting": "[3]", "result": "inhibit food intake"}]}, {"compound": "[Phe^13,Tyr^19]-MCH", "values": [{"measurement": "Kd", "setting": "[4]; radioiodinated ligand, G4F-7 mouse melanoma cells", "result": 0.118, "unit": "nM"}]}, {"compound": "native MCH: Melanin-concentrating hormone, cyclic peptide", "values": [{"measurement": "Ki", "setting": "[4]; inhibition of radioiodinated [Phe13,Tyr19]-MCH binding", "result": 12, "unit": "nM"}]}]}
